This is an account of results in patent US9944597B2, “Polysubstituted pyrroles having microtubule-disrupting, cytotoxic and antitumor activities and methods of use thereof” (THE BOARD OF REGENTS OF THE UNIVERSITY OF TEXAS SYSTEM, priority 2013, dated 2018).

In data set [1] the test system is variety of cancer cell lines. As to conditions: cited from earlier work.
In the next data set the test system is HeLa WT-β-III cells. Put plainly: Antiproliferative SRB assay, βIII-tubulin expressing HeLa. It is filed as cell-based, human. To be noted: for IC50: Homo sapiens, HeLa, Table 49, βIII tubulin expressing line, 48 hr, SRB assay; for Rr (β-III): relative resistance: IC50 of expressing line divided by IC50 of parental HeLa. A digest of the protocol: (§1)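 Cells attached and grew 24 h, then were exposed to compound for 48 h, TCA-fixed and protein stained with sulforhodamine B. IC50 taken from linear portion of log concentration-response curves; relative resistance = IC50 in expressing line / IC50 in parental line.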

A further data set has as its system SK-OV-3-MDR-1-6/6 cells. Put plainly: Antiproliferative SRB assay, Pgp expressing SK-OV-3. To be noted: for IC50: Homo sapiens, SK-OV-3, Table 49, Pgp expressing line, 48 hr, SRB assay. It counts as cell-based, human. In general terms: The SRB assay estimates cell density from bound dye.
Data set [2] addresses T1, purified porcine brain tubulin (Sus scrofa, UniProt P02554).
T1 construct: of Purified Porcine Brain Tubulin; from tissue; host or cells: porcine brain
In words: Inhibition of polymerization of purified tubulin (absorbance at 340 nm). It counts as biochemical.

In data set [3] the test system is MDA-MB-435 (human melanoma cancer cells). In words: Antiproliferative SRB assay, MDA-MB-435. It is filed as cell-based. To be noted: Homo sapiens, MDA-MB-435. An outline of the steps: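 After 24 h attachment, MDA-MB-435 cells were exposed to compounds for 48 h, then fixed with trichloroacetic acid. Cellular protein was quantified by sulforhodamine B staining. IC50 for proliferation inhibition was taken from the linear portion of log concentration–response curves.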

Data set [4] has as its system A-10 cells. In words: Cellular microtubule loss by indirect immunofluorescence. It is filed as cell-based, rat. As to conditions: Rattus norvegicus, A10. An outline of the steps:
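Rat embryonic vascular smooth muscle cells were treated across a range of compound concentrations. Microtubules were stained by indirect β-tubulin immunofluorescence, with DAPI for DNA. EC50 is the concentration giving about 50% interphase microtubule loss, scored visually, from curves over at least three experiments.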

Data set [5] concerns SK-OV-3 (human ovarian cancer cells). In words: Antiproliferative SRB assay, SK-OV-3. It is filed as cell-based. As to conditions: Homo sapiens.
The test system of data set [6] is HeLa (human cervical cancer cells). Put plainly: Antiproliferative SRB assay, HeLa. It counts as cell-based. As to conditions: Homo sapiens, HeLa. A digest of the protocol: as §1
In data set [7] the test system is MDA-MB-435 (human melanoma cancer cells). To be noted: Table 53; literature data from Da et al. 2013; read-out: MDA-MB-435 Antiproliferative IC50; cited from earlier work.
For data set [8], the system named is A-10 cells. To be noted: Table 53; literature data from Da et al. 2013; read-out: Microtubule Depolymerization EC50; cited from earlier work.
The next data set deals with PC-3 xenograft. To be noted: i.p. dosing at relatively high doses, after 14 days of treatment; cited from earlier work.
The next data set deals with P-glycoprotein (Homo sapiens, UniProt P08183). To be noted: cited from earlier work.
For data set [9], the target named is colchicine binding site on tubulin (Sus scrofa, UniProt P02554). Put plainly: Colchicine site binding, fluorometric assay. As to conditions: for effect on colchicine binding (FIG. 9): result in words.
The test system of data set [10] is HeLa cells. Put plainly: Mitotic spindles by indirect immunofluorescence. It counts as cell-based, human. To be noted: 18 h, 15 nM or 25 nM. How it is done: The effects of NT-7-16 on mitotic spindles were evaluated in HeLa cells by indirect immunofluorescence. HeLa cells were treated for 18 h with (A) vehicle (DMSO), (B) 15 nM NT-7-16 or (C) 25 nM NT-7-16. […] These effects are consistent with the actions of other microtubule disrupting agents. The presence of lagging chromosomes is indicated by the arrows and is caused by disruption of normal microtubule dynamics.

Data set [11] deals with HeLa cells. In words: Cell cycle distribution by flow cytometry. It is filed as cell-based, human. To be noted: HeLa cells treated for 18 hr; FIG. 3: 25 nM NT-7-16, 12.5 nM paclitaxel. How it is done: The effects of NT-7-16 on cell cycle distribution were determined. […] The cells were stained with Kirshan's reagent (Kirshan, Cell Biol. 66, 188-93 (1975)), and cell cycle distribution was measured using a Millipore Muse flow cytometer.
The effects of NT-7-16 on cell cycle distribution were determined. […] The cells were stained with Kirshan's reagent (Kirshan Cell Biol. 66, 188-93. (1975)), and cell cycle distribution was measured using a Millipore Muse flow cytometer.
Background: In flow cytometry, cells or beads pass a laser one at a time.

For another data set, the system named is MDA-MB-435 xenograft. Put plainly: MDA-MB-435 xenograft murine model. It counts as in vivo. How it is done:
The antitumor activity of NT-7-45 was evaluated in the MDA-MB-435 xenograft murine model of cancer. MDA-MB-435 cells were implanted subcutaneously into both flanks of nude mice. Mice were treated periodically with six injections of NT-7-45 i.p. at 75 mg/kg, suspended in a mixture of Tween80, DMSO and PBS.
The antitumor activity of NT-7-16 was evaluated in the MDA-MB-435 xenograft murine model of cancer. MDA-MB-435 cells were implanted subcutaneously into both flanks of nude mice. Mice were treated on days 1, 4, 7, 11, 14, 18, 20 and 22 by injecting NT-7-16 i.p. at 50 mg/kg suspended in a mixture of Tween80, DMSO and PBS. […] As shown in FIG. 5-7, NT-7-16 inhibited tumor growth as compared to vehicle-treated controls in a statistically significant (p<0.05) manner at days 11, 13, 15, 18 and 22.

Where [12] appears, read: Table 48, 48 hr exposure, SRB assay, read-out: MDA-MB-435 Anti-Proliferative Activity, IC50.
Setting [13] is: Table 48, 48 hr exposure, read-out: HeLa Anti-Proliferative Activity, IC50.
[14] abbreviates: Table 49, parental line, 48 hr, read-out: HeLa IC50.

“Also recorded” adds a separate entry of the source. Where two headings read alike, the source gives them in different places.

Chain of colchicine binding site on tubulin (P02554 whole entry): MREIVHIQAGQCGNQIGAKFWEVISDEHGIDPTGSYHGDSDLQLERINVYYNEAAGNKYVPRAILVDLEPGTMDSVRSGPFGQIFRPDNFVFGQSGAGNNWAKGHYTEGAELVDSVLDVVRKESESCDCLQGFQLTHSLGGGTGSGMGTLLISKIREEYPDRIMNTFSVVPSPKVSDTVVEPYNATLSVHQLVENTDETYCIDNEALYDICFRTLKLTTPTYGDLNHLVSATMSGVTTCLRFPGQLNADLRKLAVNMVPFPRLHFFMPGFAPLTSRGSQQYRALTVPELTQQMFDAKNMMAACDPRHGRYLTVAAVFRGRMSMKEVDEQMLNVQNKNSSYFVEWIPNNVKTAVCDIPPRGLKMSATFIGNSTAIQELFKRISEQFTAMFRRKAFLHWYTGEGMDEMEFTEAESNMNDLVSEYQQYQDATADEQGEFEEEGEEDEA
Chain of colchicine binding site on tubulin (P02550 whole entry partner): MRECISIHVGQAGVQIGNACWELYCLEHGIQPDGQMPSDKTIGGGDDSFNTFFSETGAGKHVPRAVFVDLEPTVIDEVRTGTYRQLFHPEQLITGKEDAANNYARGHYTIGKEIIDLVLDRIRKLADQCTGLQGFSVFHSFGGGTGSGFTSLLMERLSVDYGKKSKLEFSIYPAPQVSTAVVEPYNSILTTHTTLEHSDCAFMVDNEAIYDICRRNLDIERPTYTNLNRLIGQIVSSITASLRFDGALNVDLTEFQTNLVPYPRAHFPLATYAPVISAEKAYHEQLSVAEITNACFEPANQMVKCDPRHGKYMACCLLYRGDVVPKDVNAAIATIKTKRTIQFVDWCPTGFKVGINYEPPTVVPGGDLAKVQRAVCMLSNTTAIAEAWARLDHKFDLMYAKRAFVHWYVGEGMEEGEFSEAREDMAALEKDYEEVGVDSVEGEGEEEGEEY
T1 sequence (P02554 whole entry): as the sequence (P02554 whole entry) above
T1 sequence (P02550 whole entry partner): as the sequence (P02550 whole entry partner) above
Chain of P-glycoprotein (P08183 whole entry): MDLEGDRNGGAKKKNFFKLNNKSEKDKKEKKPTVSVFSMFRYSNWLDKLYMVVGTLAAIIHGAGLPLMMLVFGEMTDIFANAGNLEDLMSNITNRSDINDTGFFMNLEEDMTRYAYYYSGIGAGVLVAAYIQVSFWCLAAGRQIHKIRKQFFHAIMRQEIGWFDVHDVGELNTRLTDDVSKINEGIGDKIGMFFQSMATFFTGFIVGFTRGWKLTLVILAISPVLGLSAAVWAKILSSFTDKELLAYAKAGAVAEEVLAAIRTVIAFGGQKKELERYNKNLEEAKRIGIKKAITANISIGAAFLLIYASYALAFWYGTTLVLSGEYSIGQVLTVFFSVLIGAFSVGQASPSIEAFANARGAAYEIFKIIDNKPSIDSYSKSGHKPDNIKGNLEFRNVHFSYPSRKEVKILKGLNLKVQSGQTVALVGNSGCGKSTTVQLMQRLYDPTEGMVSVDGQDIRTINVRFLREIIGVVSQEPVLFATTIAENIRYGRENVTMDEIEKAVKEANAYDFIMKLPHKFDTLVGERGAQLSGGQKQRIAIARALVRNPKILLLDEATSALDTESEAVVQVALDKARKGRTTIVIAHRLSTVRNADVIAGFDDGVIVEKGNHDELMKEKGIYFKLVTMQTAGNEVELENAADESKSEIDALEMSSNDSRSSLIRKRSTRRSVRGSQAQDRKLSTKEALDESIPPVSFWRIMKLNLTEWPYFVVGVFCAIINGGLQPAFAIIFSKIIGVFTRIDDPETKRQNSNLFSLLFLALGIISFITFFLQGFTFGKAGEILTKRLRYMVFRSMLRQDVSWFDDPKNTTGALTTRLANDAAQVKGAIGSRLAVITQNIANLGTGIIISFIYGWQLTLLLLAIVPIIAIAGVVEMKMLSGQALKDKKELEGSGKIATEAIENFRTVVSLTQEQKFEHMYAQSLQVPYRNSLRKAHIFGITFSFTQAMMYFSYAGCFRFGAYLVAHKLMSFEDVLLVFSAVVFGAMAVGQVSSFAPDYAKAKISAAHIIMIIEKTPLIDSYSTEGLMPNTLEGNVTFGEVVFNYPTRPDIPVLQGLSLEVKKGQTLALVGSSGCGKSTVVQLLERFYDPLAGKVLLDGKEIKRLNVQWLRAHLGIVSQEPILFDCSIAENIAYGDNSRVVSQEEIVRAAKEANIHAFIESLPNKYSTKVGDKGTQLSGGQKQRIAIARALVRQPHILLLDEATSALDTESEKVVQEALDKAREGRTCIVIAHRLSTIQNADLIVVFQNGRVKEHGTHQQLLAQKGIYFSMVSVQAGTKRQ

Take `CCOC(=O)c1[nH]c(Br)c(-c2cc(OC)c(OC)c(OC)c2)c1Br` [4-[(3,4,5-trimethoxy)-phenyl]-3,5-dibromopyrrole 2-carboxylic acid ethyl ester]: in data set [1] (against cancer cell lines), the “fold less active than JG-03-14 in vitro” value is given as “more than 350 fold”.
What is called IC50 is the concentration at which inhibition is half-maximal. Usually melting point stands for the temperature of the solid-liquid transition. In general, inhibition refers to the relative decrease from the control value, in per cent. By EC50 is commonly meant the concentration giving half of the maximal effect. In turn, `CCOC(=O)c1[nH]c(C#N)c(-c2ccc(OC)c(OC)c2OC)c1Br` [Example 11, 3-Bromo-4-(2,3,4-trimethoxyphenyl)-5-cyano-1H-pyrrole 2-carboxylic acid ethyl ester] gave a melting point of 173 to 176 °C. Besides, in the data set with HeLa WT-β-III cells, inhibition was half-maximal at 0.0261 ± 0.0008 µM (IC50) and the “Rr (β-III)” value was determined as 1.3. Also, inhibition in the data set with SK-OV-3-MDR-1-6/6 cells was half-maximal at 0.0422 ± 0.0055 µM (IC50). Besides, the “Rr (Pgp)” value with SK-OV-3-MDR-1-6/6 cells (relative resistance: IC50 of expressing line divided by IC50 of parental SK-OV-3) turned out to be 1.6. The inhibition at 2 µM in [2] (compound at 2 μM) turned out to be 78%. In addition, the IC50 in data set [3] (setting [12]) is 0.0196 ± 0.0018 µM. In addition, in data set [3] (Table 52, read-out: MDA-MB-435 Anti-Proliferative Activity, IC50), the IC50 worked out at 0.0196 ± 0.0018 µM. The EC50 in the data set on A-10 cells [4] (Table 50, concentration causing approximately 50% loss of interphase microtubules, read-out: EC50 Values (nM) for Microtubule Loss in A-10 cells) was 88.1 nM. Besides, the IC50 in [5] (SK-OV-3, Table 48, 48 hr exposure, read-out: SK-OV-3 Anti-Proliferative Activity, IC50) was 0.0262 ± 0.0021 µM. In addition, the IC50 in [5] (SK-OV-3, Table 49, parental line, 48 hr, read-out: SK-OV-3 IC50) worked out at 0.0262 ± 0.0021 µM. In addition, in data set [6] (setting [13]), the concentration for half-maximal inhibition (IC50) is 0.0206 ± 0.0019 µM. The 50% inhibitory concentration (IC50) in data set [6] (setting [14]) is 0.0206 ± 0.0019 µM.
As for `CCOC(=O)c1[nH]c(Br)c(-c2ccc(OC)c(OC)c2)c1Br` [JG-03-14, 4-[(3,4-dimethoxy)-phenyl]-3,5-dibromopyrrole 2-carboxylic acid ethyl ester], the IC50 was 0.036 ± 0.002 µM in data set [7] and 0.062 µM in data set [1] (average over a variety of cancer cell lines, read-out: antiproliferative activity, average IC50). Also, the EC50 in the data set with A-10 cells [8] was 0.49 µM. In the data set with PC-3 xenograft, the “reduction in tumor burden” value is given as “greater than 50%”. Moreover, the “substrate for transport by P-glycoprotein” value on P-glycoprotein was “poor substrate”.
As for `CCOC(=O)c1[nH]c(Br)c(-c2ccc(OC)c(OC)c2OC)c1Br` [NT-7-16, 3,5-Dibromo-4-(2,3,4-trimethoxyphenyl)-1H-pyrrole-2-carboxylic acid ethyl ester], the inhibition at 10 µM in data set [9] (read-out: inhibition of colchicine binding to tubulin) is about 80%. Also, the “effect on colchicine binding (FIG. 9)” value in [9] was “concentration dependent inhibition of colchicine binding”. In the data set on HeLa cells [10], the “effects on mitotic spindles” value is “aberrant mitotic spindles”. Further, the “inhibition of tubulin assembly” value in data set [2] (at concentrations of 2-5 μM) is listed as “almost total inhibition”. Besides, the “effect on tubulin polymerization (turbidity, FIG. 2, FIG. 10)” value in data set [2] (result in words) is “concentration-dependent inhibition of tubulin assembly; also recorded: inhibits tubulin polymerization”. Besides, the cell cycle distribution result in the data set on HeLa cells [11] was “initiated mitotic accumulation; also recorded: G2/M arrest”. Besides, the half-maximal inhibitory concentration (IC50) in data set [3] (Table 53, own compounds, read-out: MDA-MB-435 Antiproliferative IC50) worked out at 0.014 ± 0.005 µM. For the same compound, the EC50 with A-10 cells [4] (Table 53, own compounds, read-out: Microtubule Depolymerization EC50) came to 345 nM. The “tumor growth in MDA-MB-435 xenograft” value with MDA-MB-435 xenograft (50 mg/kg i.p. on days 1, 4, 7, 11, 14, 18, 20, 22, 25-day model) is given as “significant antitumor effects; also recorded: prevented tumor growth; also recorded: statistically significant (p<0.05) inhibition of tumor growth”. The “toxicity in xenograft study” value in the data set on MDA-MB-435 xenograft (50 mg/kg i.p., eight cumulative doses) is on record as “no evidence of toxicity; also recorded: no overt toxicity”. Moreover, the animal body weight result in the data set on MDA-MB-435 xenograft (50 mg/kg i.p., over 25 days) is listed as “no significant change in animal body weight; also recorded: no significant weight loss”.
Consider `CC(=O)O[C@H]1C(=O)[C@@]2(C)[C@H]([C@H](OC(=O)c3ccccc3)[C@]3(O)C[C@H](OC(=O)[C@H](O)[C@@H](NC(=O)c4ccccc4)c4ccccc4)C(C)=C1C3(C)C)[C@]1(OC(C)=O)CO[C@@H]1C[C@@H]2O` [paclitaxel, reference compound], for which the IC50 with HeLa WT-β-III cells turned out to be 0.0211 ± 0.0018 µM; in the data set with SK-OV-3-MDR-1-6/6 cells it was 2.33 µM; in data set [3] (setting [12]), 0.002 ± 0.0001 µM; in data set [6] (setting [13]) it was 0.0015 ± 5e-05 µM; in [6] (setting [14]), 0.0015 ± 5e-05 µM. Also, the “Rr (β-III)” value in the data set on HeLa WT-β-III cells was found to be 14.1. In addition, in the data set with HeLa cells [11], the cell cycle distribution entry is “initiated mitotic accumulation”.
In the case of `CC[C@]1(O)C[C@@H]2CN(CCc3c([nH]c4ccccc34)[C@@](C(=O)OC)(c3cc4c(cc3OC)N(C)[C@H]3[C@@](O)(C(=O)OC)[C@H](OC(C)=O)[C@]5(CC)C=CCN6CC[C@]43[C@@H]65)C2)C1` [vinblastine, reference compound], the “effect on colchicine binding” value in [9] (at 100 μM) is listed as “no effect”. Further, the “effect on colchicine binding (FIG. 9)” value in [9] is on record as “does not”.
